How the values were obtained:
Assay in all cases: relative viability (nuclei count vs DMSO), 5 days (fraction); higher = more cells survive
Trametinib + AZD7762 = compound: CC(=O)Nc1cccc(-n2c(=O)n(C3CC3)c(=O)c3c(Nc4ccc(I)cc4F)n(C)c(=O)c(C)c32)c1 [Trametinib] + NC(=O)Nc1cc(-c2cccc(F)c2)sc1C(=O)N[C@H]1CCCNC1 [AZD7762] (partner 0.2 µM)
Summary of the method: (§1)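 Lung cancer cell lines were seeded in 1536-well plates and dosed by pin tool the next day, with either a single drug or a fixed anchor-drug dose combined with five library-drug doses (not always all listed) spaced in √10 steps. Five days later, one step fixed the cells and stained their nuclei (final 0.05% Triton X-100, 1% formaldehyde, 1 ug/ml Hoechst), and nuclei were counted on 4× images. Relative viability is the nuclei count in treated wells divided by the count in vehicle wells, and each value is the median of duplicate plates.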

Trametinib + Alpelisib = compound: CC(=O)Nc1cccc(-n2c(=O)n(C3CC3)c(=O)c3c(Nc4ccc(I)cc4F)n(C)c(=O)c(C)c32)c1 [Trametinib] + Cc1nc(NC(=O)N2CCC[C@H]2C(N)=O)sc1-c1ccnc(C(C)(C)C(F)(F)F)c1 [Alpelisib] (partner 2 µM)
Summary of the method: as §1

Trametinib + Luminespib = compound: CC(=O)Nc1cccc(-n2c(=O)n(C3CC3)c(=O)c3c(Nc4ccc(I)cc4F)n(C)c(=O)c(C)c32)c1 [Trametinib] + CCNC(=O)c1noc(-c2cc(C(C)C)c(O)cc2O)c1-c1ccc(CN2CCOCC2)cc1 [Luminespib] (partner 0.01 µM)
Summary of the method: as §1

[1] = compound: CN1C=C(C2=CC=CC=C21)/C=C\3/C4=C(C=CC=N4)NC3=O + CC1(C)CCC(c2ccc(Cl)cc2)=C(CN2CCN(c3ccc(C(=O)NS(=O)(=O)c4ccc(N[C@H](CCN5CCOCC5)CSc5ccccc5)c(S(=O)(=O)C(F)(F)F)c4)cc3)CC2)C1 [Navitoclax] (partner 0.5 µM)
Summary of the method: as §1

NCI-H2347
relative viability (Trametinib + AZD7762; first compound 0.0025 µM): 0.642
relative viability (Trametinib + AZD7762; first compound 0.007906 µM): 0.41
relative viability (Trametinib + AZD7762; first compound 0.025 µM): 0.296
relative viability (Trametinib + AZD7762; first compound 0.07906 µM): 0.29
relative viability (Trametinib + AZD7762; first compound 0.25 µM): 0.296
relative viability (Trametinib + Alpelisib; first compound 0.0025 µM): 0.96
relative viability (Trametinib + Alpelisib; first compound 0.007906 µM): 0.552
relative viability (Trametinib + Alpelisib; first compound 0.025 µM): 0.346
relative viability (Trametinib + Alpelisib; first compound 0.07906 µM): 0.38
relative viability (Trametinib + Alpelisib; first compound 0.25 µM): 0.36
relative viability (Trametinib + Luminespib; first compound 0.0025 µM): 0.513
relative viability (Trametinib + Luminespib; first compound 0.007906 µM): 0.254
relative viability (Trametinib + Luminespib; first compound 0.025 µM): 0.205
relative viability (Trametinib + Luminespib; first compound 0.07906 µM): 0.208
relative viability (Trametinib + Luminespib; first compound 0.25 µM): 0.303
relative viability ([1]; first compound 0.02 µM): 0.826
relative viability ([1]; first compound 0.06325 µM): 0.859
relative viability ([1]; first compound 0.2 µM): 0.743
relative viability ([1]; first compound 0.6325 µM): 0.764
relative viability ([1]; first compound 2 µM): 0.834

NCI-H2405
relative viability (Trametinib + AZD7762; first compound 0.0025 µM): 0.566
relative viability (Trametinib + AZD7762; first compound 0.007906 µM): 0.616
relative viability (Trametinib + AZD7762; first compound 0.025 µM): 0.425
relative viability (Trametinib + AZD7762; first compound 0.25 µM): 0.401
relative viability (Trametinib + Alpelisib; first compound 0.0025 µM): 0.599
relative viability (Trametinib + Alpelisib; first compound 0.007906 µM): 0.42
relative viability (Trametinib + Alpelisib; first compound 0.025 µM): 0.339
relative viability (Trametinib + Alpelisib; first compound 0.07906 µM): 0.379
relative viability (Trametinib + Alpelisib; first compound 0.25 µM): 0.315
relative viability (Trametinib + Luminespib; first compound 0.0025 µM): 0.529
relative viability (Trametinib + Luminespib; first compound 0.007906 µM): 0.591
relative viability (Trametinib + Luminespib; first compound 0.025 µM): 0.395
relative viability (Trametinib + Luminespib; first compound 0.07906 µM): 0.338
relative viability (Trametinib + Luminespib; first compound 0.25 µM): 0.306
relative viability ([1]; first compound 0.02 µM): 0.891
relative viability ([1]; first compound 0.06325 µM): 0.803
relative viability ([1]; first compound 0.2 µM): 0.65
relative viability ([1]; first compound 0.6325 µM): 1.1
relative viability ([1]; first compound 2 µM): 0.732

NCI-H3122
relative viability (Trametinib + AZD7762; first compound 0.0025 µM): 0.947
relative viability (Trametinib + AZD7762; first compound 0.007906 µM): 0.642
relative viability (Trametinib + AZD7762; first compound 0.025 µM): 0.292
relative viability (Trametinib + AZD7762; first compound 0.07906 µM): 0.361
relative viability (Trametinib + AZD7762; first compound 0.25 µM): 0.308
relative viability (Trametinib + Alpelisib; first compound 0.0025 µM): 0.466
relative viability (Trametinib + Alpelisib; first compound 0.007906 µM): 0.395
relative viability (Trametinib + Alpelisib; first compound 0.025 µM): 0.224
relative viability (Trametinib + Alpelisib; first compound 0.07906 µM): 0.234
relative viability (Trametinib + Alpelisib; first compound 0.25 µM): 0.21
relative viability (Trametinib + Luminespib; first compound 0.0025 µM): 0.103
relative viability (Trametinib + Luminespib; first compound 0.007906 µM): 0.0926
relative viability (Trametinib + Luminespib; first compound 0.025 µM): 0.0926
relative viability (Trametinib + Luminespib; first compound 0.07906 µM): 0.0939
relative viability (Trametinib + Luminespib; first compound 0.25 µM): 0.0775
relative viability ([1]; first compound 0.02 µM): 0.907
relative viability ([1]; first compound 0.06325 µM): 1.01
relative viability ([1]; first compound 0.2 µM): 0.989
relative viability ([1]; first compound 0.6325 µM): 1.11
relative viability ([1]; first compound 2 µM): 1.06

PC-3 [JPC-3]
relative viability (Trametinib + AZD7762; first compound 0.0025 µM): 0.714
relative viability (Trametinib + AZD7762; first compound 0.007906 µM): 0.501
relative viability (Trametinib + AZD7762; first compound 0.025 µM): 0.506
relative viability (Trametinib + AZD7762; first compound 0.25 µM): 0.568
relative viability (Trametinib + Alpelisib; first compound 0.0025 µM): 0.998
relative viability (Trametinib + Alpelisib; first compound 0.007906 µM): 0.968
relative viability (Trametinib + Alpelisib; first compound 0.025 µM): 0.864
relative viability (Trametinib + Alpelisib; first compound 0.07906 µM): 0.806
relative viability (Trametinib + Alpelisib; first compound 0.25 µM): 0.511
relative viability (Trametinib + Luminespib; first compound 0.0025 µM): 0.656
relative viability (Trametinib + Luminespib; first compound 0.007906 µM): 0.574
relative viability (Trametinib + Luminespib; first compound 0.025 µM): 0.385
relative viability (Trametinib + Luminespib; first compound 0.07906 µM): 0.405
relative viability (Trametinib + Luminespib; first compound 0.25 µM): 0.396
relative viability ([1]; first compound 0.02 µM): 0.782
relative viability ([1]; first compound 0.06325 µM): 0.743
relative viability ([1]; first compound 0.2 µM): 0.788
relative viability ([1]; first compound 0.6325 µM): 0.812
relative viability ([1]; first compound 2 µM): 0.683

PC-14
relative viability (Trametinib + AZD7762; first compound 0.0025 µM): 0.354
relative viability (Trametinib + AZD7762; first compound 0.007906 µM): 0.274
relative viability (Trametinib + AZD7762; first compound 0.025 µM): 0.224
relative viability (Trametinib + AZD7762; first compound 0.07906 µM): 0.193
relative viability (Trametinib + AZD7762; first compound 0.25 µM): 0.203
relative viability (Trametinib + Alpelisib; first compound 0.0025 µM): 0.994
relative viability (Trametinib + Alpelisib; first compound 0.007906 µM): 0.892
relative viability (Trametinib + Alpelisib; first compound 0.025 µM): 0.949
relative viability (Trametinib + Alpelisib; first compound 0.07906 µM): 0.654
relative viability (Trametinib + Alpelisib; first compound 0.25 µM): 0.46
relative viability (Trametinib + Luminespib; first compound 0.0025 µM): 0.125
relative viability (Trametinib + Luminespib; first compound 0.007906 µM): 0.147
relative viability (Trametinib + Luminespib; first compound 0.025 µM): 0.127
relative viability (Trametinib + Luminespib; first compound 0.07906 µM): 0.152
relative viability (Trametinib + Luminespib; first compound 0.25 µM): 0.147
relative viability ([1]; first compound 0.02 µM): 1.05
relative viability ([1]; first compound 0.06325 µM): 0.985
relative viability ([1]; first compound 0.2 µM): 1.14
relative viability ([1]; first compound 0.6325 µM): 0.971
relative viability ([1]; first compound 2 µM): 0.989

RERF-LC-KJ
relative viability (Trametinib + AZD7762; first compound 0.0025 µM): 0.853
relative viability (Trametinib + AZD7762; first compound 0.007906 µM): 0.909
relative viability (Trametinib + AZD7762; first compound 0.025 µM): 0.674
relative viability (Trametinib + AZD7762; first compound 0.07906 µM): 0.807
relative viability (Trametinib + AZD7762; first compound 0.25 µM): 0.814
relative viability (Trametinib + Alpelisib; first compound 0.0025 µM): 0.775
relative viability (Trametinib + Alpelisib; first compound 0.007906 µM): 0.759
relative viability (Trametinib + Alpelisib; first compound 0.025 µM): 0.645
relative viability (Trametinib + Alpelisib; first compound 0.07906 µM): 0.657
relative viability (Trametinib + Alpelisib; first compound 0.25 µM): 0.472
relative viability (Trametinib + Luminespib; first compound 0.0025 µM): 1.21
relative viability (Trametinib + Luminespib; first compound 0.007906 µM): 1.19
relative viability (Trametinib + Luminespib; first compound 0.025 µM): 1.14
relative viability (Trametinib + Luminespib; first compound 0.07906 µM): 1.09
relative viability (Trametinib + Luminespib; first compound 0.25 µM): 0.736
relative viability ([1]; first compound 0.02 µM): 1.03
relative viability ([1]; first compound 0.06325 µM): 0.937
relative viability ([1]; first compound 0.2 µM): 0.707
relative viability ([1]; first compound 0.6325 µM): 0.691
relative viability ([1]; first compound 2 µM): 0.51

— the supplement of paper PMC10307832
